Assay results taken from PubChem BioAssay AID1996.
Converted amounts (≈) assume the structure as drawn.

Settings: buffer; pH 7.4; 200.0 µM

| SMILES | solubility kinetic |
| --- | --- |
| OCCCNCc1ccc(N(c2ccccc2)c2ccccc2)cc1 | 39 µg/mL (≈ 117 µM) |
| COc1cc(C(=O)N=c2sccn2C)c([N+](=O)[O-])cc1OC | 47.2 µg/mL (≈ 146 µM) |
| O=C(CN1CCN(c2ccccn2)CC1)Nc1ccccc1F | 42.3 µg/mL (≈ 135 µM) |
| Cc1ccc(/C=C2\C(=O)NC(=O)N(CC3CCCO3)C2=O)s1 (stereo not given) | > 48.1 µg/mL |
| Oc1cc2c(cc1CN1CCN(c3ncccn3)CC1)OCO2 | 17.2 µg/mL (≈ 54.7 µM) |
| O=C(NC(=S)Nc1ccccc1F)C1CCCCC1 | 3 µg/mL (≈ 10.7 µM) |
| Cl.O=C(COc1ccc(F)cc1)NCCCn1ccnc1 | 39.1 µg/mL |
| COc1ccccc1CNC(=O)C12CC3CC(CC(C3)C1)C2 | 2.3 µg/mL (≈ 7.68 µM) |
| COc1nccnc1NS(=O)(=O)c1ccc(N)cc1 | > 42 µg/mL |
| COc1cccc(C(O)c2nc3ccccc3n2C)c1 (stereo not given) | 28.9 µg/mL (≈ 108 µM) |
| O=C1NCC(COc2ccc(Cl)cc2)O1 (stereo not given) | > 34.1 µg/mL |
| N#C/C(=C\c1cccc([N+](=O)[O-])c1)c1ccccn1 | 3.6 µg/mL (≈ 14.3 µM) |
| Cc1ccc(C(=O)N=c2sccn2C)o1 | 32.9 µg/mL (≈ 148 µM) |
| O=c1cc(CN2CCOCC2)c2cc(Cl)c(O)cc2o1 | > 44.4 µg/mL |
| COc1ccc(CCNC(=O)COc2ccccc2[N+](=O)[O-])cc1OC | > 54.1 µg/mL |
| Cc1cc(C(=O)OCC(=O)NC(C)C)c2ccccc2n1 | > 42.9 µg/mL |
| CNc1ccc(C(=O)OCC(=O)NC(=O)NC2CCCC2)cc1[N+](=O)[O-] | 1.7 µg/mL (≈ 4.67 µM) |
| O=C(Nc1ccccc1)c1ccccc1NC(=O)c1ccccc1C(=O)O | 52.6 µg/mL (≈ 146 µM) |
| Cc1cc(C)nc(NC(=O)c2cccs2)c1 | 22.6 µg/mL (≈ 97.3 µM) |
| Cc1ccc(CC2SC(N)=NC2=O)cc1 (stereo not given) | > 33 µg/mL |

| SMILES | solubility kinetic |
| --- | --- |
| O=C(NC1CCSc2ccccc21)c1c(F)cccc1Cl (stereo not given) | 7.2 µg/mL (≈ 22.4 µM) |
| CN(Cc1ccccc1)S(=O)(=O)c1ccccc1[N+](=O)[O-] | 15.3 µg/mL (≈ 49.9 µM) |
| Cc1cc(=O)[nH]c(SCC(=O)Nc2ccc3c(c2)OCCO3)n1 | > 50 µg/mL |
| O=C(O)/C=C/C(=O)NC1CC1 | > 23.3 µg/mL |
| Cc1ccc(S(=O)(=O)Nc2ccc3nc(C)sc3c2)c(C)c1 | 30 µg/mL (≈ 90.2 µM) |
| COc1cccc(CNS(=O)(=O)c2csc(C(N)=O)c2)c1 | > 49 µg/mL |
| O=C(COC(=O)COc1ccc(Cl)cc1)NC1CC1 | > 42.6 µg/mL |
| N#Cc1c(N2CCCC(O)C2)nc(N)c2c(N)nc3c(c12)CC(=O)N3C12CC3CC(CC(C3)C1)C2 (stereo not given) | 2.4 µg/mL (≈ 5.07 µM) |
| CN1CCC(N(C)S(=O)(=O)c2ccc(F)cc2F)CC1 | > 45.7 µg/mL |
| COC(=O)c1ccc(OC)c(Cn2c(=O)n(C)c(=O)c3ccccc32)c1 | 2.2 µg/mL (≈ 6.21 µM) |
| CC(Oc1ccc([N+](=O)[O-])cc1)C(=O)NCC1CCCO1 (stereo not given) | > 44.1 µg/mL |
| O=C(N/C(=C/c1cccnc1)C(=O)N1CCOCC1)c1ccccc1F | > 53.3 µg/mL |
| Cl.O=S(=O)(c1ccc(F)cc1)N1CCCNCC1 | > 44.2 µg/mL |
| CCc1ccc(C(=O)COC(=O)CNC(=O)Cc2ccccc2)cc1 | 36.6 µg/mL (≈ 108 µM) |
| O=C(O)CCc1nc2ccccc2c(=O)[nH]1 | > 32.7 µg/mL |
| Cc1nc(SCC(=O)NC(=O)NC2CCCCC2)nc(C)c1C | 47.8 µg/mL (≈ 142 µM) |
| COc1ccc(C2=NCCNC(C(F)(F)F)=C2)cc1 | > 40.5 µg/mL |
| CCC(=O)Nc1ccc(C(=O)COC(=O)Cc2ccsc2)cc1 | 15.9 µg/mL (≈ 48 µM) |
| CSc1nc(=S)n(-c2ccccc2)c(C)c1C(C)=O | 41.7 µg/mL (≈ 144 µM) |
| N#CCN1CCCC(C(N)=O)C1 (stereo not given) | 19.6 µg/mL (≈ 117 µM) |

| SMILES | solubility kinetic |
| --- | --- |
| Cc1onc(-c2ccccc2)c1CNC(=O)Nc1ccccc1 | > 46.1 µg/mL |
| O=C(Nc1cccnc1)C1=NN(C2CCS(=O)(=O)C2)C(=O)CC1 (stereo not given) | > 50.5 µg/mL |
| O=C(CC(=O)c1ccccc1)Nc1ccccc1C(F)(F)F | 43.7 µg/mL (≈ 142 µM) |
| CNc1nc(-c2ccc3c(c2)CCN3C(=O)CC(C)(C)C)c(C)s1 | 17.5 µg/mL (≈ 50.9 µM) |
| CC1=NCCN1S(=O)(=O)c1c(C(C)C)cc(C(C)C)cc1C(C)C | 16.8 µg/mL (≈ 47.9 µM) |
| COCCNC(=O)c1ccccc1NC(=O)Nc1ccccc1 | > 47 µg/mL |
| CCN(CC)C(=S)Oc1ccc(Cl)cc1Cl | 0.9 µg/mL (≈ 3.24 µM) |
| Cc1csc(SCC(=O)Nc2sccc2C(N)=O)n1 | 43.8 µg/mL (≈ 140 µM) |
| CCOC(=O)c1cc(C)n(-c2ccc(Cl)cc2)c1C | 1.2 µg/mL (≈ 4.32 µM) |
| CCC(=O)Nc1ccc2c(c1)N(C(C)=O)c1ccccc1CC2 | > 46.3 µg/mL |
| CC(CCn1cccn1)NC(=O)CCc1nnc(C2CCCCC2)o1 (stereo not given) | > 51.8 µg/mL |
| CCCC(=O)Nc1ccc2c(c1)Cc1ccccc1-2 | 1.5 µg/mL (≈ 5.97 µM) |
| COC(=O)/C(=C\C(=O)c1ccc([N+](=O)[O-])cc1)Nc1ccc(OC)cc1 | < 0.4 µg/mL |
| Fc1cccc(F)c1-c1nc(-c2ccc(Cl)cc2)no1 | < 0.3 µg/mL |
| COc1ccc(-c2noc(-c3ccc(Br)o3)n2)cc1 | < 0.3 µg/mL |
| CCOc1ccc(C)cc1S(=O)(=O)n1cnc2ccccc21 | 1 µg/mL (≈ 3.16 µM) |
| C=Cc1ccc(Cn2c(=O)n(C)c(=O)c3sccc32)cc1 | 1 µg/mL (≈ 3.35 µM) |
| CC(C)n1c(=S)[nH]c2cc(Cl)ccc21 | 11 µg/mL (≈ 48.5 µM) |
| COc1ccccc1C(=O)OCC(=O)NC1CCCC1 | > 41.6 µg/mL |
| O=c1[nH]c2ccccc2nc1CCc1ccccc1 | 1.4 µg/mL (≈ 5.59 µM) |
